For one data set, the system named is Staphylococcus aureus. The data set is described as follows: Antibacterial activity against Staphylococcus aureus NCIM 2120 after 24 hrs by disc diffusion method. Conditions: for MIC: Staphylococcus aureus, NCIM 2120, 24 h. Format: functional. (In agar diffusion tests the substance spreads into inoculated agar from a disc or well.)
Another data set deals with Klebsiella pneumoniae. The data set is described as follows: Antibacterial activity against Klebsiella pneumoniae NCIM 5082 after 24 hrs by disc diffusion method. Format: functional. To be noted: for MIC: Klebsiella pneumoniae, NCIM 5082, 24 h.
The subject of data set [1] is THP-1. The data set is described as follows: Antiinflammatory activity in human THP1 cells assessed as inhibition of LPS-induced TNFalpha production at 10 uM treated 30 mins before LPS challenge measured after 24 hrs by ELISA relative to control. Format: functional. A general note: In an ELISA, binding on a coated surface is turned into a signal by an enzyme label.

The test system of a further data set is Candida albicans. The data set is described as follows: Antifungal activity against Candida albicans NCIM 3100 after 72 hrs by disc diffusion method. The class given is functional. Conditions: for MIC: Candida albicans, NCIM 3100, 72 h.
The next data set has as its system Escherichia coli. Nature of the data set: Antibacterial activity against Escherichia coli NCIM 2065 after 24 hrs by disc diffusion method. Format: functional. To be noted: for MIC: Escherichia coli, NCIM 2065, 24 h.
The subject of data set [2] is THP-1. Nature of the data set: Antiinflammatory activity in human THP1 cells assessed as inhibition of LPS-induced IL-6 production at 10 uM treated 30 mins before LPS challenge measured after 24 hrs by ELISA relative to control. Format: functional.
In another data set the test system is Penicillium chrysogenum. Nature of the data set: Antifungal activity against Penicillium chrysogenum NCIM 707 after 72 hrs by disc diffusion method. Conditions: for MIC: Penicillium chrysogenum, NCIM 707, 72 h. The class given is functional.
For a further data set, the system named is Proteus vulgaris. The data set is described as follows: Antibacterial activity against Proteus vulgaris NCIM 2813 after 24 hrs by disc diffusion method. Format: functional. To be noted: for MIC: Proteus vulgaris, NCIM 2813, 24 h.
The subject of data set [3] is Bacillus subtilis. The data set is described as follows: Antibacterial activity against Bacillus subtilis NCIM 2546 after 24 hrs by disc diffusion method. Format: functional. Conditions: for MIC: Bacillus subtilis, NCIM 2546, 24 h.
The test system of another data set is Aspergillus fumigatus. Nature of the data set: Antifungal activity against Aspergillus fumigatus NCIM 902 after 72 hrs by disc diffusion method. Format: functional. Conditions: for MIC: Aspergillus fumigatus, NCIM 902, 72 h.
Data set [4] in a line: Cytotoxicity against human THP-1 cells at 10 uM. Conditions: THP-1, 10 µM.
The test system of the next data set is Aspergillus niger. The data set is described as follows: Antifungal activity against Aspergillus niger NCIM 545 after 72 hrs by disc diffusion method. To be noted: for MIC: Aspergillus niger, NCIM 545, 72 h. Format: functional.
In data set [5] the test system is Bacillus subtilis. The data set is described as follows: Antibacterial activity against Bacillus subtilis after 24 hrs by disc diffusion method.
The next data set deals with Trichoderma viride. Nature of the data set: Antifungal activity against Trichoderma viride TT after 72 hrs by disc diffusion method. The class given is functional. Conditions: for MIC: Trichoderma viride, TT, 72 h.

Broadly, the MIC is the least concentration at which growth counts as inhibited. A low value points to greater potency. Broadly, the inhibition is the drop in the measured response relative to a control, in per cent.

Structures are written as SMILES. Values after ≈ are worked out from the molar mass of the structure shown. Some results are limits rather than exact numbers.

As for `COc1cc(OC)c2c(c1)OC(CN1CCN(C)CC1)(CN1CCN(C)CC1)C2=O`, the MIC with Staphylococcus aureus is greater than 100 µg/mL; in the data set with Klebsiella pneumoniae, greater than 100 µg/mL; in the data set on Candida albicans, greater than 100 µg/mL; against Escherichia coli, 50 µg/mL (≈ 119 µM); in the data set with Penicillium chrysogenum it was 50 µg/mL (≈ 119 µM); in the data set on Proteus vulgaris, 25 µg/mL (≈ 59.7 µM). The MIC against Bacillus subtilis [3], in the data set with Aspergillus fumigatus and against Aspergillus niger was 50 µg/mL (≈ 119 µM) each time. Further, the inhibition at 10 µM with THP-1 [1] is 76%; in the data set on THP-1 [2] it was 97%. For the same compound, the “inhibition zone (IZ)” value is 14 mm in the data set on Escherichia coli; 14 mm in the data set with Penicillium chrysogenum; 16 mm in the data set on Proteus vulgaris; 14 mm in the data set on Bacillus subtilis [3]; 15 mm with Aspergillus fumigatus; 14 mm in the data set on Aspergillus niger. This compound came in with an Activity in data set [4] of 29%.
Take `COc1cc(OC)c2c(c1)OC(CN1CCCC1)(CN1CCCC1)C2=O`: the “inhibition zone (IZ)” value is reported as 15 mm in the data set on Staphylococcus aureus; 20 mm with Klebsiella pneumoniae; 14 mm in the data set with Candida albicans; 18 mm in the data set on Bacillus subtilis [5]; 16 mm in the data set with Penicillium chrysogenum; 22 mm in the data set with Proteus vulgaris. The “inhibition zone (IZ)” value stood at 20 mm in the data set on Bacillus subtilis [3], 22 mm in the data set on Aspergillus fumigatus, 15 mm in the data set with Trichoderma viride and 21 mm in the data set on Aspergillus niger. Moreover, the MIC in the data set with Staphylococcus aureus is 25 µg/mL (≈ 69.4 µM); with Klebsiella pneumoniae, 25 µg/mL (≈ 69.4 µM); in the data set on Candida albicans it was 50 µg/mL (≈ 139 µM); against Escherichia coli, 25 µg/mL (≈ 69.4 µM); against Penicillium chrysogenum, 25 µg/mL (≈ 69.4 µM); with Proteus vulgaris, 25 µg/mL (≈ 69.4 µM). The MIC amounted to 25 µg/mL (≈ 69.4 µM) in the data set with Bacillus subtilis [3], 25 µg/mL (≈ 69.4 µM) with Aspergillus fumigatus, 50 µg/mL (≈ 139 µM) against Trichoderma viride and 25 µg/mL (≈ 69.4 µM) with Aspergillus niger. Further, the inhibition at 10 µM in the data set on THP-1 [1] and in the data set on THP-1 [2] was 100% each time. In data set [4], this compound gave an Activity of 83%.
Consider `COc1cc(OC)c2c(c1)OC(CN1CCCCC1)(CN1CCCCC1)C2=O`, for which the “inhibition zone (IZ)” value in the data set with Staphylococcus aureus is reported as 16 mm; in the data set on Klebsiella pneumoniae, 18 mm; in the data set with Penicillium chrysogenum it was 18 mm; in the data set on Proteus vulgaris, 15 mm; in the data set with Bacillus subtilis [3], 18 mm; in the data set on Aspergillus fumigatus, 16 mm. In addition, the “inhibition zone (IZ)” value with Trichoderma viride is reported as 14 mm; in the data set with Aspergillus niger it was 17 mm. In addition, the MIC in the data set on Staphylococcus aureus is 25 µg/mL (≈ 64.3 µM); against Klebsiella pneumoniae it was 25 µg/mL (≈ 64.3 µM); against Candida albicans, greater than 100 µg/mL; in the data set with Escherichia coli it was 25 µg/mL (≈ 64.3 µM); against Penicillium chrysogenum, 25 µg/mL (≈ 64.3 µM); in the data set with Proteus vulgaris it was 50 µg/mL (≈ 129 µM). The MIC against Bacillus subtilis [3] amounted to 25 µg/mL (≈ 64.3 µM); against Aspergillus fumigatus it was 50 µg/mL (≈ 129 µM); in the data set with Trichoderma viride it was 50 µg/mL (≈ 129 µM); against Aspergillus niger, 25 µg/mL (≈ 64.3 µM). The inhibition at 10 µM in the data set with THP-1 [1] was found to be 35%; with THP-1 [2] it was 82%. The compound further displayed an Activity in data set [4] of 21%.
With `COc1cc(OC)c2c(c1)OC(CN(C)C)(CN(C)C)C2=O`, the “inhibition zone (IZ)” value amounted to 14 mm in the data set with Staphylococcus aureus; 15 mm in the data set on Klebsiella pneumoniae; 16 mm in the data set on Candida albicans; 15 mm with Bacillus subtilis [5]; 15 mm with Penicillium chrysogenum; 15 mm in the data set with Proteus vulgaris. The “inhibition zone (IZ)” value in the data set on Bacillus subtilis [3] is reported as 14 mm; with Aspergillus fumigatus, 18 mm; in the data set on Trichoderma viride, 15 mm; in the data set with Aspergillus niger it was 16 mm. The MIC in the data set on Staphylococcus aureus is 50 µg/mL (≈ 162 µM); in the data set on Klebsiella pneumoniae, 50 µg/mL (≈ 162 µM); in the data set with Candida albicans it was 25 µg/mL (≈ 81.1 µM); in the data set on Escherichia coli it was 50 µg/mL (≈ 162 µM); in the data set on Penicillium chrysogenum, 50 µg/mL (≈ 162 µM); in the data set on Proteus vulgaris, 50 µg/mL (≈ 162 µM). In addition, the MIC in the data set with Bacillus subtilis [3] is 50 µg/mL (≈ 162 µM); in the data set on Aspergillus fumigatus, 25 µg/mL (≈ 81.1 µM); against Trichoderma viride, 25 µg/mL (≈ 81.1 µM); in the data set with Aspergillus niger it was 50 µg/mL (≈ 162 µM).
As to `COc1cc(OC)c2c(c1)OC(CN1CCOCC1)(CN1CCOCC1)C2=O`, the “inhibition zone (IZ)” value with Staphylococcus aureus worked out at 15 mm; in the data set with Candida albicans it was 15 mm; in the data set on Escherichia coli it was 16 mm; in the data set on Penicillium chrysogenum it was 23 mm; in the data set with Proteus vulgaris, 22 mm; in the data set on Bacillus subtilis [3], 16 mm. The “inhibition zone (IZ)” value worked out at 18 mm in the data set with Aspergillus fumigatus, 15 mm in the data set with Trichoderma viride and 24 mm in the data set on Aspergillus niger. The MIC in the data set with Staphylococcus aureus was 50 µg/mL (≈ 127 µM); against Klebsiella pneumoniae it was greater than 100 µg/mL; in the data set on Candida albicans, 50 µg/mL (≈ 127 µM); in the data set on Escherichia coli, 25 µg/mL (≈ 63.7 µM); with Penicillium chrysogenum, 25 µg/mL (≈ 63.7 µM); with Proteus vulgaris it was 25 µg/mL (≈ 63.7 µM). For the same compound, the MIC against Bacillus subtilis [3], against Aspergillus fumigatus, in the data set with Trichoderma viride and with Aspergillus niger was 25 µg/mL (≈ 63.7 µM) each time. In addition, the results for the inhibition at 10 µM with THP-1 [1] and in the data set on THP-1 [2] were 89% and 100%, respectively. Moreover, the Activity in [4] is listed as 66%.
With `OC(Cn1cncn1)(Cn1cncn1)c1ccc(F)cc1F` [FLUCONAZOLE], the “inhibition zone (IZ)” value in the data set on Candida albicans is recorded as 24 mm; in the data set on Penicillium chrysogenum, 24 mm; with Aspergillus fumigatus, 21 mm; in the data set on Trichoderma viride, 18 mm; in the data set with Aspergillus niger, 24 mm. For the same compound, the MIC with Candida albicans, with Penicillium chrysogenum, in the data set with Aspergillus fumigatus, in the data set with Trichoderma viride and with Aspergillus niger was 25 µg/mL (≈ 81.6 µM) throughout.
Regarding `CCN(C)CC1(CN(C)CC)Oc2cc(OC)cc(OC)c2C1=O`, the MIC in the data set with Staphylococcus aureus was greater than 100 µg/mL; in the data set with Klebsiella pneumoniae it was greater than 100 µg/mL; against Candida albicans, greater than 100 µg/mL; against Escherichia coli it was greater than 100 µg/mL; with Penicillium chrysogenum, 50 µg/mL (≈ 149 µM); in the data set on Proteus vulgaris, greater than 100 µg/mL. Also, the MIC was greater than 100 µg/mL in the data set on Bacillus subtilis [3], 50 µg/mL (≈ 149 µM) against Aspergillus fumigatus, greater than 100 µg/mL against Trichoderma viride and greater than 100 µg/mL with Aspergillus niger. Also, the “inhibition zone (IZ)” value was found to be 15 mm in the data set with Penicillium chrysogenum and 14 mm with Aspergillus fumigatus.
As to `CCN1CCN(CC2(CN3CCN(CC)CC3)Oc3cc(OC)cc(OC)c3C2=O)CC1`, the “inhibition zone (IZ)” value with Staphylococcus aureus came out at 15 mm; with Klebsiella pneumoniae, 17 mm; in the data set with Candida albicans, 13 mm; with Escherichia coli, 16 mm; in the data set on Penicillium chrysogenum, 16 mm; with Proteus vulgaris it was 14 mm. Also, the “inhibition zone (IZ)” value with Bacillus subtilis [3] was 16 mm; with Aspergillus fumigatus, 14 mm; in the data set on Trichoderma viride it was 13 mm; with Aspergillus niger, 14 mm. The MIC worked out at 25 µg/mL (≈ 56 µM) against Staphylococcus aureus; 25 µg/mL (≈ 56 µM) in the data set on Klebsiella pneumoniae; 50 µg/mL (≈ 112 µM) in the data set on Candida albicans; 50 µg/mL (≈ 112 µM) against Escherichia coli; 25 µg/mL (≈ 56 µM) against Penicillium chrysogenum; 50 µg/mL (≈ 112 µM) against Proteus vulgaris. Also, the MIC in the data set with Bacillus subtilis [3], against Aspergillus fumigatus, against Trichoderma viride and against Aspergillus niger was 50 µg/mL (≈ 112 µM) each time.

The values above are taken from ChEMBL document CHEMBL1177886, “Synthesis and biological evaluation of a novel series of 2,2-bisaminomethylated aurone analogues as anti-inflammatory and antimicrobial agents” (Eur J Med Chem, 2010).
